For 30 compounds, IC50 results are on record in patent US9790169B2, “IDO inhibitors” (BRISTOL-MYERS SQUIBB COMPANY, priority 2015, dated 2017).

The experiment addresses human IDO1 (Homo sapiens, UniProt P14902). In words: Assessment of human IDO-1 inhibitory activity in Hela cells (Interferon-gamma stimulated HeLa cells, Ehrlich reagent, absorbance 490 nm). It counts as cell-based. Conditions: Hela Human IDO-1 cellular assay. Set-up: endogenous in cells; host or cells: HeLa cells stimulated with interferon-gamma. The protocol:
Exemplary compounds were tested for inhibition of IDO activity.
Assessment of Human IDO-1 Inhibitory Activity in Hela Cells
HeLa cells were seeded at 20,000 cells per 30 μL per well with RPMI/phenol red free media containing 10% FBS in a 384-well tissue culture plate (black with clear bottoms). 50 nL of compound was added to cells and incubated at 37° C. for one hour. 20 μL of the recombinant human Interferon-gamma (R&D System, Cat. #285-IF, at final concentration of 10 ng/ml) or recombinant murine Interferon-gamma (PEPROTECH® Inc., Cat. #315-05, final concentration of 5 ng/ml) was added to activate IDO signaling. The cells were incubated for 18 hours in 37° C. incubator with 5% CO2.
Compound treatment was stopped by adding 5 μl trichloroacetic acid to a final concentration of 3%. Subsequently, the cell plate was further incubated at 50° C. for 30 minute. An equal volume supernatant (20 μL) and 2% (w/v) Ehrlich reagent (4-dimethylaminobenzaldehyde) in glacial acetic acid were mixed in a new clear bottom 384-well plate. This plate was incubated at room temperature for 30 minutes. Absorbance at 490 nm was measured on Envision plate reader.
Compound IC50 values were calculated using counts from unstimulated (no INF-gamma treatment) wells as 100% inhibition. INF-gamma treatment without compound treatment as 0% inhibition.

Chain of human IDO1 (P14902 whole entry): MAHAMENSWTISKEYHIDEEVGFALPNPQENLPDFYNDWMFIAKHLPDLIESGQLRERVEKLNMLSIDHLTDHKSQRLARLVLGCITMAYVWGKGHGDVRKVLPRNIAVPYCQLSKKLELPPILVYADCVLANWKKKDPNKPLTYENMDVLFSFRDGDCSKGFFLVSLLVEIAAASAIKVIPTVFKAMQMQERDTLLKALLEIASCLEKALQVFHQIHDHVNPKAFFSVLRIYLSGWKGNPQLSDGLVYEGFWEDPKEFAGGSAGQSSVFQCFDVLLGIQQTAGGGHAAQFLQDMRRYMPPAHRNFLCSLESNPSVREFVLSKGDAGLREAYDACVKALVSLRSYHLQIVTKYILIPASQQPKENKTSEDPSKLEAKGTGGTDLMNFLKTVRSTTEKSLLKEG

Take `CCC(CC(=O)O)c1cc(F)c(N(CC)C2CCOCC2)c(Nc2cnc(OC)nc2)c1` (single isomer, unassigned) [Example 140, 3-(4-(ethyl(tetrahydro-2H-pyran-4-yl)amino)-3-fluoro-5-((2-methoxypyrimidin-5-yl)amino)phenyl) pentanoic acid]: the IC50 (commonly the concentration that inhibits the measured activity by half) is under 0.005 µM.
Compound `CCC(CC(=O)O)c1cc(F)c(N(CC)C2CCOCC2)c(Nc2cnc(OCC3CC3)nc2)c1` (single isomer, unassigned) [Example 141, 3-(3-((2-(cyclopropylmethoxy)pyrimidin-5-yl)amino)-4-(ethyl(tetrahydro-2H-pyran-4-yl)amino)-5-fluorophenyl)pentanoic acid] had an IC50 of under 0.005 µM.
On to `CCC(CC(=O)O)c1cc(F)c(N(CC)C2CCOCC2)c(Nc2ccc(OC)nc2)c1` (single isomer, unassigned) [Example 142, 3-(4-(ethyl(tetrahydro-2H-pyran-4-yl)amino)-3-fluoro-5-((6-methoxypyridin-3-yl)amino)phenyl) pentanoic acid], for which the IC50 was under 0.005 µM.
With `CCN(c1ccc(C(COC)CC(=O)O)cc1Nc1ccc(Cl)cc1)C1CCS(=O)(=O)CC1` (single isomer, unassigned) [Example 170, 3-(3-((4-chlorophenyl)amino)-4-((1,1-dioxidotetrahydro-2H-thiopyran-4-yl)(ethyl)amino)phenyl)-4-methoxybutanoic acid], the IC50 is under 0.005 µM.
As to `CCOc1ncc(Nc2cc(C(COC)CC(=O)O)ccc2N(CC)C2CCS(=O)(=O)CC2)cn1` (single isomer, unassigned) [Example 171, 3-(4-((1,1-dioxidotetrahydro-2H-thiopyran-4-yl)(ethyl)amino)-3-((2-ethoxypyrimidin-5-yl)amino)phenyl)-4-methoxybutanoic acid], the IC50 was over 0.05 µM.
In the case of `CCN(c1ccc(C(COC)CC(=O)O)cc1Nc1ccc(F)cc1)C1CCS(=O)(=O)CC1` (single isomer, unassigned) [Example 172, 3-(4-((1,1-dioxidotetrahydro-2H-thiopyran-4-yl)(ethyl)amino)-3-((4-fluorophenyl)amino)phenyl)-4-methoxybutanoic acid] it was under 0.05 µM.
Take `CCN(c1ccc(C(COC)CC(=O)O)cc1Nc1ccc(Cl)cc1)C1CCS(=O)(=O)CC1` (single isomer, unassigned) [Example 174, 3-(3-((4-chlorophenyl)amino)-4-((1,1-dioxidotetrahydro-2H-thiopyran-4-yl)(ethyl)amino)phenyl)-4-methoxybutanoic acid]: the half-maximal inhibitory concentration (IC50) was under 0.05 µM.
With `CCCN(c1ccc(C(COC)CC(=O)O)cc1Nc1ccc(Cl)cc1)C1CCS(=O)(=O)CC1` (single isomer, unassigned) [Example 183, 3-(3-((4-chlorophenyl)amino)-4-((1,1-dioxidotetrahydro-2H-thiopyran-4-yl)(propyl)amino)phenyl)-4-methoxybutanoic acid] the figure was under 0.05 µM; with `CCCN(c1ccc(C(COC)CC(=O)O)cc1Nc1ccc(F)cc1)C1CCS(=O)(=O)CC1` (single isomer, unassigned) [Example 184, 3-(4-((1,1-dioxidotetrahydro-2H-thiopyran-4-yl)(propyl)amino)-3-((4-fluorophenyl)amino)phenyl)-4-methoxybutanoic acid], under 0.005 µM; with `CCCN(c1ccc(C(COC)CC(=O)O)cc1Nc1ccc(Cl)cc1)C1CCS(=O)(=O)CC1` (single isomer, unassigned) [Example 185, 3-(3-((4-chlorophenyl)amino)-4-((1,1-dioxidotetrahydro-2H-thiopyran-4-yl)(propyl)amino)phenyl)-4-methoxybutanoic acid], under 0.005 µM.
Compound `C[C@@H]1CN(c2ccc(C(CC(=O)O)C3CC3)cc2Nc2ccc(C#N)cc2)C[C@H](C)O1` (single isomer, unassigned) [Example 243] returned an IC50 of under 0.05 µM.
For `C[C@@H]1CN(c2ccc(C(CC(=O)O)C3CC3)cc2Nc2ccc(Cl)cc2)C[C@H](C)O1` (single isomer, unassigned) [Example 244], the IC50 is under 0.05 µM.
In the case of `COc1ccc(Nc2cc(C(CC(=O)O)C3CC3)ccc2N2C[C@@H](C)O[C@@H](C)C2)cn1` (single isomer, unassigned) [Example 246], the IC50 is over 0.05 µM.
As to `C[C@@H]1CN(c2ccc(C(CC(=O)O)C3CC3)cc2Nc2ccc(C#N)cc2)C[C@H](C)O1` (single isomer, unassigned) [Example 247], the IC50 was over 0.05 µM.
With `Cc1ccc(NC(=O)Nc2cc(C(CC(=O)O)C3CC3)ccc2N2C[C@@H](C)O[C@@H](C)C2)cc1` (single isomer, unassigned) [Example 251 Enantiomer 1] the figure was over 0.05 µM; with `C[C@@H]1CN(c2ccc(C(CC(=O)O)C3CC3)cc2NC(=O)Nc2ccc(Cl)cc2F)C[C@H](C)O1` (single isomer, unassigned) [Example 252], over 0.05 µM; with `CCN(c1ccc(C(CC(=O)O)C2CC2)cc1NC(=O)Nc1ccc(C#N)cc1)C1CCOCC1` (single isomer, unassigned) [Example 255 Enantiomer 1, 3-(3-(3-(4-Cyanophenyl)ureido)-4-(ethyl(tetrahydro-2H-pyran-4-yl)amino)phenyl)-3-cyclopropylpropanoic acid], over 0.05 µM.
As for `COCCN(c1ccc(C(COC)CC(=O)O)cc1Nc1ccc(Cl)cc1)C1CCOCC1` (single isomer, unassigned) [Example 256 Enantiomer 1, 3-(3-((4-Chlorophenyl)amino)-4-((2-methoxyethyl)(tetrahydro-2H-pyran-4-yl)amino)phenyl)-4-methoxybutanoic acid], the IC50 is under 0.005 µM.
For `COCCN(c1ccc(C(COC)CC(=O)O)cc1Nc1ccc(C#N)cc1)C1CCOCC1` (single isomer, unassigned) [Example 257, 3-(3-((4-cyanophenyl)amino)-4-((2-methoxyethyl)(tetrahydro-2H-pyran-4-yl)amino)phenyl)-4-methoxybutanoic acid], the IC50 was under 0.05 µM.
In turn, `COCCN(c1ccc(C(COC)CC(=O)O)cc1Nc1ccc(F)cc1)C1CCOCC1` (single isomer, unassigned) [Example 258, 3-(3-((4-fluorophenyl)amino)-4-((2-methoxyethyl)(tetrahydro-2H-pyran-4-yl)amino)phenyl)-4-methoxybutanoic acid] had an IC50 of under 0.05 µM.
In the case of `COCCN(c1ccc(C(COC)CC(=O)O)cc1NC(=O)Nc1ccc(C)cc1)C1CCOCC1` (single isomer, unassigned) [Example 261 Enantiomer 1, 4-Methoxy-3-(4-((2-methoxyethyl)(tetrahydro-2H-pyran-4-yl)amino)-3-(3-(p-tolyl)ureido)phenyl)butanoic acid] it was over 0.05 µM.
Compound `COCCN(c1ccc(C(COC)CC(=O)O)cc1NC(=O)Nc1ccc(Cl)cc1F)C1CCOCC1` (single isomer, unassigned) [Example 262, 3-(3-(3-(4-chloro-2-fluorophenyl)ureido)-4-((2-methoxyethyl)(tetrahydro-2H-pyran-4-yl)amino)phenyl)-4-methoxybutanoic acid] had an IC50 of over 0.05 µM.
With `CC[C@@H](CC(=O)O)c1ccc(N(CC2CC2)CC(C)(C)O)c(Nc2ccc(Cl)cc2)c1` (single isomer, unassigned) [Example 267] the figure was under 0.005 µM; with `CC[C@@H](CC(=O)O)c1ccc(N(CC2CC2)CC(C)(C)O)c(Nc2ccc(C#N)cc2)c1` (single isomer, unassigned) [Example 268], under 0.005 µM.
`CC[C@@H](CC(=O)O)c1ccc(N(CC2CC2)CC(C)(C)O)c(Nc2ccc(F)cc2)c1` (single isomer, unassigned) [Example 269] came in with an IC50 of under 0.05 µM.
Compound `CCC(CC(=O)O)c1ccc(N(CC(F)F)C2CCOCC2)c(Nc2ccc(Cl)cc2)c1` (single isomer, unassigned) [Example 318 Enantiomer 1, 3-(3-((4-Chlorophenyl)amino)-4-((2,2-difluoroethyl)(tetrahydro-2H-pyran-4-yl)amino)phenyl)pentanoic acid] displayed an IC50 of under 0.005 µM.
Take `COCC(CC(=O)O)c1ccc(N(CC(F)F)C2CCOCC2)c(Nc2ccc(Cl)cc2)c1` (single isomer, unassigned) [Example 321 Enantiomer 1, 3-(3-((4-Chlorophenyl)amino)-4-((2,2-difluoroethyl)(tetrahydro-2H-pyran-4-yl)amino)phenyl)-4-methoxybutanoic acid]: the IC50 was under 0.005 µM.
`COCC(CC(=O)O)c1ccc(N(CC(F)F)C2CCOCC2)c(Nc2ccc(C#N)cc2)c1` (single isomer, unassigned) [Example 322, 3-(3-((4-cyanophenyl)amino)-4-((2,2-difluoroethyl)(tetrahydro-2H-pyran-4-yl)amino)phenyl)-4-methoxybutanoic acid] gave an IC50 of under 0.005 µM.
With `CCN(c1ccc([C@@H](COC(C)C)CC(=O)O)cc1Nc1ccc(C#N)cc1)C1CCOCC1` (single isomer, unassigned) [Example 324] the figure was under 0.05 µM; with `CCN(c1ccc([C@H](COC(C)C)CC(=O)O)cc1Nc1ccc(C#N)cc1)C1CCOCC1` (single isomer, unassigned) [Example 329], under 0.05 µM.
